# Measured values as given in ChEMBL document CHEMBL2021779, “Inhibition of hepatitis C virus NS5A by fluoro-olefin based γ-turn mimetics” (Bioorg Med Chem Lett, 2012).
# Tests used:
# [1] = test system: Hepatitis C virus subtype 1a; experiment: Antiviral activity against Hepatitis C virus genotype 1A by whole cell replicon assay
# Hepatitis C virus [2] = experiment: Antiviral activity against Hepatitis C virus genotype 1B by whole cell replicon assay; assay type: functional, organism-based, Hepacivirus hominis
# Hepatitis C virus [3] = experiment: Antiviral activity against Hepatitis C virus genotype 2A by whole cell replicon assay; assay type: functional, organism-based, Hepacivirus hominis
compound,measurement,setting,value
COC(=O)N[C@H](/C(F)=C(\C)[C@@H](C)c1ncc(-c2ccc(-c3ccc(-c4cnc([C@H](C)/C(C)=C(\F)[C@@H](NC(=O)OC)C(C)C)[nH]4)cc3)cc2)[nH]1)C(C)C,EC50,[1],659 nM
same,EC50,Hepatitis C virus [2],27.3 nM
same,EC50,Hepatitis C virus [3],397 nM
COC(=O)N[C@H](/C(F)=C1\CCC[C@H]1c1ncc(-c2ccc(-c3ccc(-c4cnc([C@@H]5CCC/C5=C(/F)[C@@H](NC(=O)OC)C(C)C)[nH]4)cc3)cc2)[nH]1)C(C)C,EC50,[1],189 nM
same,EC50,Hepatitis C virus [2],0.079 nM
same,EC50,Hepatitis C virus [3],167 nM
COC(=O)N[C@H](C(=O)N1CCC[C@H]1c1ncc(-c2ccc(-c3ccc(-c4cnc([C@@H]5CCCN5C(=O)[C@@H](NC(=O)OC)C(C)C)[nH]4)cc3)cc2)[nH]1)C(C)C,EC50,Hepatitis C virus [2],[…]
same,EC50,Hepatitis C virus [3],0.063 nM
